Test results reported in US20240381872A1, “SUBSTITUTED 2,3-DIHYDRO[1,3]THIAZOLO[4,5-B]PYRIDINES, SALTS THEREOF AND THEIR USE AS HERBICIDALLY ACTIVE SUBSTANCES” (BAYER AKTIENGESELLSCHAFT, priority 2021, published 2024).

What was measured:
Assay type in all cases: in vivo
[1] = tested on: Matricaria inodora (MATIN); assay: Herbicidal pre-emergence action, section A (Table A6); conditions: visual grading after ca. 3 weeks vs untreated controls
In short: (§1)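 Seeds sown in sandy loam and covered with soil; compounds formulated as WP or EC were applied to the soil surface as aqueous suspension or emulsion with 0.5% additive at 600 l water/ha. Pots kept in greenhouse under optimum conditions; damage scored visually after ca. 3 weeks versus untreated controls (0–100%).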

[2] = tested on: Digitaria sanguinalis (DIGSA); assay: Herbicidal pre-emergence action, section A (Table A12); conditions: application rate 320 g/ha
In short: as §1

[3] = tested on: Abutilon theophrasti (ABUTH); assay: Herbicidal post-emergence action, section B (Table B1); conditions: rated visually after about 3 weeks; for post-emergence activity against ABUTH in %: application rate 320 g/ha
In short: (§2)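 In this greenhouse assay, compounds in WP or EC form were applied post-emergence with 0.5% additive at a water rate of 600 liters per hectare. Treatment took place at the one-leaf stage, and injury was rated visually about 3 weeks later against untreated plants.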

[4] = tested on: Poa annua (POAAN); assay: Herbicidal post-emergence action, section B (Table B7); conditions: visual rating about 3 weeks after treatment vs untreated controls
In short: as §2

[5] = tested on: Setaria viridis (SETVI); assay: Herbicidal post-emergence action, section B (Table B8); conditions: application rate 1280 g/ha, visual rating about 3 weeks after treatment vs untreated controls
In short: as §2

[6] = tested on: Echinochloa crus-galli (ECHCG); assay: Herbicidal pre-emergence action, section C (Table C3); conditions: application rate 80 g/ha, visual grading after ca. 3 weeks vs untreated controls; for pest or weed control at 80 g/ha: Echinochloa crus-galli, pre-emergence, 504 h, read-out: pre-emergence activity against ECHCG in %
In short: (§3)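 Visual damage rating at ca. 3 weeks relative to untreated controls, expressed as % effect (100% = plants died, 0% = like controls). Pre-emergence treatment: WP or EC formulations applied to the soil surface over sown seeds in sandy loam, 600 l water/ha, 0.5% additive.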

[7] = tested on: Matricaria inodora (MATIN); assay: Herbicidal pre-emergence action, section C (Table C6); conditions: visual grading after ca. 3 weeks; for pest or weed control at 320 g/ha: Tripleurospermum inodorum, pre-emergence, 504 h, read-out: pre-emergence activity against MATIN in %
From the text: (§4) Seeds of mono- and dicotyledonous weed plants and crop plants were sown, in plastic or organic planting pots, in sandy loam and covered with soil. The compounds according to the invention, formulated in the form of wettable powders (WP) or as emulsifiable concentrates (EC), were applied to the surface of the covering soil as aqueous suspension or emulsion, with the addition of 0.5% of an additive, at an application rate of 600 l of water/ha (converted). Following treatment, the pots were placed in a greenhouse and kept under optimum growth conditions for the test plants. The visual grading of the damage to the test plants was carried out after ca. 3 weeks in comparison to untreated controls (herbicidal effect in percent (%): 100% effect=plants have died off, 0% effect=as control plants).

[8] = tested on: Polygonum convolvulus (POLCO); assay: Herbicidal pre-emergence action, section C (Table C7); conditions: visual grading after ca. 3 weeks; for pest or weed control at 320 g/ha / pre-emergence activity against POLCO in %: application rate 320 g/ha
In short: as §3

[9] = tested on: Veronica persica (VERPE); assay: Herbicidal pre-emergence action, section C (Table C10); conditions: visual grading after ca. 3 weeks; for pest or weed control at 320 g/ha: Veronica persica, pre-emergence, 504 h, application rate 320 g/ha, read-out: pre-emergence activity against VERPE in %; for pre-emergence activity against VERPE in %: application rate 80 g/ha
From the text: as §4

[10] = tested on: Amaranthus retroflexus (AMARE); assay: Herbicidal pre-emergence action, section C (Table C11); conditions: visual grading after ca. 3 weeks; for pest or weed control at 80 g/ha: application rate 80 g/ha
In short: as §3

[11] = tested on: Digitaria sanguinalis (DIGSA); assay: Herbicidal pre-emergence action, section C (Table C12); conditions: visual grading after ca. 3 weeks
In short: as §3

[12] = tested on: Glycine max (GLXMA); assay: Pre-emergence effects on crop plants, section D (Table D4); conditions: visual grading after ca. 3 weeks
In short: (§5)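 Seeds sown in sandy loam and covered with soil; WP or EC formulations applied to the covering soil surface as aqueous suspension/emulsion with 0.5% additive at 600 l water/ha, at 320 g/ha or below. Greenhouse growth; visual damage scored after ca. 3 weeks versus untreated controls (0% = as control, 100% = dead).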

[13] = tested on: Digitaria sanguinalis (DIGSA); assay: Herbicidal post-emergence action, section B (Table B12); conditions: application rate 1280 g/ha; visual rating about 3 weeks after treatment vs untreated controls
In short: as §2

[14] = tested on: Zea mays (ZEAMX); assay: Pre-emergence effects on crop plants, section D (Table D1); conditions: visual grading after ca. 3 weeks
In short: as §5

[15] = Fallopia convolvulus, pre-emergence, 504 h, read-out: pre-emergence activity against POLCO in %
[16] = Amaranthus retroflexus, pre-emergence, 504 h, read-out: pre-emergence activity against AMARE in %

Compound | pest or weed control at 80 g/ha [6] [%] | pest or weed control at 320 g/ha ([7]; application rate 320 g/ha) [%] | pest or weed control at 320 g/ha [8, 15] [%] | pest or weed control at 320 g/ha [9] [%] | pest or weed control at 80 g/ha [10, 16] [%] | pre-emergence activity against GLXMA in % (crop plant damage) ([12]; application rate 80 g/ha) [%] | pre-emergence activity against DIGSA in % [2] [%] | post-emergence activity against ABUTH in % [3] [%] | post-emergence activity against SETVI in % [5] [%] | post-emergence activity against DIGSA in % [13] [%] | pre-emergence activity against ECHCG in % [6] [%] | pre-emergence activity against POLCO in % [8] [%] | pre-emergence activity against VERPE in % [9] [%] | pre-emergence activity against AMARE in % ([10]; application rate 320 g/ha) [%] | pre-emergence activity against ZEAMX in % (crop plant damage) ([14]; application rate 80 g/ha) [%] | further results
Cc1cc2c(nc1-c1cccc(F)c1F)NCS2 [Example I-029, 5-(2,3-difluorophenyl)-6-methyl-2,3-dihydro[1,3]thiazolo[4,5-b]pyridine] | 100 | 80 | 80 | 80 | 80 | 10 |  |  |  |  |  |  |  |  |  | pest or weed control at 320 g/ha ([1]; Tripleurospermum inodorum, pre-emergence, 504 h, application rate 320 g/ha, read-out: pre-emergence activity against MATIN in %): 90%; pest or weed control at 320 g/ha ([2]; Digitaria sanguinalis, 504 h, read-out: pre-emergence activity against DIGSA in %): 100%; pest or weed control at 1280 g/ha ([3]; Abutilon theophrasti, 504 h, application rate 1280 g/ha, read-out: post-emergence activity against ABUTH in %): 90%; pest or weed control at 1280 g/ha ([4]; Poa annua, post-emergence, 504 h, application rate 1280 g/ha, read-out: post-emergence activity against POAAN in %): 90%; pest or weed control at 1280 g/ha ([5]; Setaria viridis, post-emergence, 504 h, read-out: post-emergence activity against SETVI in %): 90%; pest or weed control at 80 g/ha ([11]; Digitaria sanguinalis, pre-emergence, 504 h, application rate 80 g/ha, read-out: pre-emergence activity against DIGSA in %): 90%
Cc1cc2c(nc1-c1ccccc1F)N(C(=O)C1(C)CC(Cl)=NO1)CS2 (centres unmarked) [Example I-083] |  |  |  |  |  |  | 100 | 90 | 90 | 90 | 100 | 90 | 80 | 90 | 10 | pre-emergence activity against MATIN in % ([1]; application rate 1280 g/ha): 90%; post-emergence activity against POAAN in % ([4]; application rate 320 g/ha): 90%; pre-emergence activity against MATIN in % ([7]; application rate 320 g/ha): 90%; pre-emergence activity against DIGSA in % ([11]; application rate 320 g/ha): 100%
COCC1(C(=O)N2CSc3cc(C)c(-c4ccccc4F)nc32)CC(Cl)=NO1 (centres unmarked) [Example I-128] |  |  |  |  |  |  | 100 | 90 | 90 | 90 | 100 | 90 | 80 | 90 | 0 | pre-emergence activity against MATIN in % ([1]; application rate 320 g/ha): 100%; post-emergence activity against POAAN in % ([4]; application rate 1280 g/ha): 90%; pre-emergence activity against MATIN in % ([7]; application rate 80 g/ha): 80%; pre-emergence activity against DIGSA in % ([11]; application rate 80 g/ha): 100%
CC(C)C(=O)N1C[S+]([O-])c2cc(Br)c(-c3ccccc3)nc21 (centres unmarked) [Example I-067] | 90 | 80 |  | 80 | 80 | 20 |  |  |  |  |  |  |  |  |  | pest or weed control at 80 g/ha ([8]; Fallopia convolvulus, pre-emergence, 504 h, application rate 80 g/ha, read-out: pre-emergence activity against POLCO in %): 90%; pest or weed control at 320 g/ha ([11]; Digitaria sanguinalis, pre-emergence, 504 h, application rate 320 g/ha, read-out: pre-emergence activity against DIGSA in %): 100%; pre-emergence activity against ZEAMX in % (crop plant damage) ([14]; application rate 320 g/ha): 20%
Fc1ccccc1-c1nc2c(cc1Br)SCN2 [Example I-001, 6-bromo-5-(2-fluorophenyl)-2,3-dihydro[1,3]thiazolo[4,5-b]pyridine] | 100 | 90 | 80 | 80 |  |  |  |  |  |  |  |  |  |  | 10 | pest or weed control at 320 g/ha ([10]; Amaranthus retroflexus, pre-emergence, 504 h, application rate 320 g/ha, read-out: pre-emergence activity against AMARE in %): 90%; pre-emergence activity against GLXMA in % (crop plant damage) ([12]; application rate 320 g/ha): 0%
